This is an account of results in PMC8252068, “Biochemical Investigation of the Interaction of pICln, RioK1 and COPR5 with the PRMT5–MEP50 Complex” (Chembiochem, 2021).

Assay [1] has as its target T1, native PRMT5–MEP50 complex (Homo sapiens, UniProt O14744+Q9BQA1).
T1 construct: Full‐length PRMT5–MEP50; 6His-MBP with 3C site (N, cleaved yes); made in house; host or cells: HighFive insect cells (flashBAC baculovirus system)
Description: Fluorescence polarisation direct binding assay, full-length PRMT5–MEP50. The note with it: FP using the native PRMT5–MEP50 complex, FITC peptide 1 nM, pH 8.0, 30 min, 20-21 °C, n=3, n.b. = no binding; for Kd: read-out: K D (Table 2, peptides 1–16). The source says: (§1) All proteins were expressed at the Protein Chemistry Facility (PCF) based in the MPI Dortmund.
(§2) For expression of the proteins, all constructs were subcloned into pOPIN vectors. […]
(§3) Expression of full-length human RioK1 tagged with 6NHis-3C and co-expression of full-length human PRMT5 (N-terminal 6His-MBP with 3C) with MEP50 (N-terminal 6His-TRX with 3C), and of TIM barrel (1-292 aa) with MEP50 (both N-terminally tagged with His-TRX with 3C cleavage site) was done using the Flash Bac Expression System (Oxford Expression Technologies, UK) with HighFive insect cells in Gibco Sf-900 III SFM medium. The cells were harvested by centrifugation and lysed.
(§4) All proteins were purified at the PCF (MPI Dortmund).
(§5) Protein purification was performed on HisTrap FF crude 5 ml Ni-based column, followed by the on-column treatment with 6His-tagged HRV-3C PreScission protease, or in case of the SUMO-tagged TIM barrel, with 6His-tagged SUMO protease. The cleaved proteins were then further purified using gel filtration chromatography with the HiLoad 26/60 Superdex 75 or 200 prep grade column. PRMT5 -MEP50, TIM-MEP50 and TIM barrel were stored in a buffer containing 50 mM HEPES, 250 mM NaCl, 1 mM TCEP with the pH adjusted to 8.0, whereas, pICln was stored in a buffer of 20 mM phosphate, 100 mM NaCl, 5 mM TCEP and pH of 7.5, whereas RioK1 was stored in a buffer of 50 mM Tris, 200 mM NaCl, 10% glycerol, 1 […]
(§6) Protein Labelling with Alexa 488
(§7) To a protein solution (ca. 1 mg/ml) in 0.2 M bicarbonate buffer with 1 mM TCEP at pH 8.3, was added 10 mM Alexa 488 NHS-ester in DMSO (8 equiv), and the mixture was kept on ice, in darkness, overnight. The protein was washed eight times with buffer (50 mM HEPES, 250 mM NaCl, 1 mM TCEP, 8.0 pH) using an Amicon® Ultra-0.5 mL spin filter. Protein concentration was then determined using the NanoDrop […]
Fluorescence Polarisation (FP)
The assay was performed in a buffer of 50 mM HEPES, 250 mM NaCl, 1 mM TCEP, 0.01% (v/v) Tween 20, pH 8.0, in black, 384 well-plates, with a total volume of 10 μl per well. The analysed, FITC labelled peptides, or Alexa488-labelled pICln or RioK1, were tested at a final concentration of 1 nM, and the appropriate unlabelled protein was titrated as two-fold dilution series. The plates were incubated at 20-21 °C for 30 min in case of FITC -labelled peptides or 1-2h in case of the Alexa488-labelled protein, and analysed on a plate reader using 485 nm excitation and 535 nm emission wavelength. The assay was performed in […]

The target in assay [2] is T1, native PRMT5–MEP50 complex. Description: Competitive fluorescence polarisation binding assay with compound 11 as tracer. The settings on record: competitive FP; tracer compound 11 at 1 nM, PRMT5-MEP50 600 nM, unlabelled peptide titrated two-fold; pH 8.0; 30 min, 20-21 °C; n=3.
Description: as §1, §2, §3, §4, §5, §6, §7
Competitive Binding Assay
The competitive binding assay was performed in a buffer of 50 mM HEPES, 250 mM NaCl, 1 mM TCEP, 0.01% (v/v) Tween 20, 8.0 pH, in black, 384 well-plates, with a total volume of 10 μl per well. The FITC labelled peptides were added at the final concentration of 1 nM, were mixed with PRMT5-MEP50 (at the final concentration of 600 nM), and the appropriate non-labelled peptide was titrated as two-fold dilution series. The plates were incubated at 20-21 °C for 30 min and analysed on a plate reader using 485 nm excitation and 535 nm emission wavelength. The experiment was performed in triplicates.

Where a SMILES comes first, the peptide text is derived from it. Side-chain parts run from the residue outwards. The star is where a group is joined. FITC = O=C1OC2(c3ccc(O)cc3Oc3cc(O)ccc32)c2ccc(NC(=S)*)cc21; AEEA = NCCOCCOCC(=O)O

T1 sequence (O14744 whole entry): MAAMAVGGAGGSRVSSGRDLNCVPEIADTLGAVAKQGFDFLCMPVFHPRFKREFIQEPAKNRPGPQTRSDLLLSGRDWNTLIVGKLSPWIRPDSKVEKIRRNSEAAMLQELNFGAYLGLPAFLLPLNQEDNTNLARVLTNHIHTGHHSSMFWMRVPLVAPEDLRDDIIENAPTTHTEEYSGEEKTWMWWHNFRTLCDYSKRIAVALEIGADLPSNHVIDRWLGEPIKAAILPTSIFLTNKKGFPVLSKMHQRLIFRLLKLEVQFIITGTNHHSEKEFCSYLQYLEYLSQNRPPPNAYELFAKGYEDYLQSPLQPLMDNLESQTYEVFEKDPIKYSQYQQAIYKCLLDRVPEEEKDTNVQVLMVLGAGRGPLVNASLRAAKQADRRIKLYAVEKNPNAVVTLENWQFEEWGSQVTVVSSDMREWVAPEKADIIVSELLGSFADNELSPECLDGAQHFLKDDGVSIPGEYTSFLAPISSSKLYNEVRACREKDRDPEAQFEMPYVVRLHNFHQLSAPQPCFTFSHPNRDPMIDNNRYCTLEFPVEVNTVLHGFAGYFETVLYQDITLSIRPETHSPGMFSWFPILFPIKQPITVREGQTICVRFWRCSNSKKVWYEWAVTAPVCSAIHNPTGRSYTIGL
T1 sequence (Q9BQA1 whole entry partner): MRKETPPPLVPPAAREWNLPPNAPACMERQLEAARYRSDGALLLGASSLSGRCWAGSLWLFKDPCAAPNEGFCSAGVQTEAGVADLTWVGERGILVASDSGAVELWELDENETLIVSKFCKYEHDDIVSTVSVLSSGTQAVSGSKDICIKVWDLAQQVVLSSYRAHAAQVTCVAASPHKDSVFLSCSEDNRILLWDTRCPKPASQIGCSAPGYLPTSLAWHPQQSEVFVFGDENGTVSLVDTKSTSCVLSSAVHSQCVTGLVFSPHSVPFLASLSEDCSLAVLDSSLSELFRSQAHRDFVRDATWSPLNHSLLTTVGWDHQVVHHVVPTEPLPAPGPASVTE

On to `CC(C)[C@H](NC(=O)[C@H](CCCNC(=N)N)NC(=O)[C@H](CO)NC(=O)COCCOCCNC(=S)Nc1ccc2c(c1)C(=O)OC21c2ccc(O)cc2Oc2cc(O)ccc21)C(=O)N[C@H](C(=O)N1CCC[C@H]1C(=O)NCC(=O)N[C@@H](CCC(N)=O)C(=O)N[C@@H](Cc1ccccc1)C(=O)N[C@@H](CC(=O)O)C(=O)N[C@@H](CC(=O)O)C(N)=O)C(C)C` [compound 5] ({FITC-AEEA}-SRVVPGQFDD-NH2), for which, in assay [1], the Kd was > 5 µM. Same read-out and setting: the value for `CC(=O)N[C@@H](CO)C(=O)N[C@@H](CCCNC(=N)N)C(=O)N[C@H](C(=O)N[C@H](C(=O)N1CCC[C@H]1C(=O)NCC(=O)N[C@@H](CCC(N)=O)C(=O)N[C@@H](Cc1ccccc1)C(=O)N[C@@H](CC(=O)O)C(=O)N[C@@H](CC(=O)O)C(=O)N[C@@H](C)C(=O)N[C@@H](CC(=O)O)C(=O)N[C@@H](CCCCNC(=O)COCCOCCNC(=S)Nc1ccc2c(c1)C(=O)OC21c2ccc(O)cc2Oc2cc(O)ccc21)C(N)=O)C(C)C)C(C)C` [compound 7] (Ac-SRVVPGQFDDADK([AEEA-FITC])-NH2) was 0.716 ± 0.036 µM; that for `CC(=O)N[C@H](C(=O)N1CCC[C@H]1C(=O)NCC(=O)N[C@@H](CCC(N)=O)C(=O)N[C@@H](Cc1ccccc1)C(=O)N[C@@H](CC(=O)O)C(=O)N[C@@H](CC(=O)O)C(=O)N[C@@H](C)C(=O)N[C@@H](CC(=O)O)C(=O)N[C@@H](CCCCNC(=O)COCCOCCNC(=S)Nc1ccc2c(c1)C(=O)OC21c2ccc(O)cc2Oc2cc(O)ccc21)C(N)=O)C(C)C` [compound 8] (Ac-VPGQFDDADK([AEEA-FITC])-NH2) was 0.208 ± 0.074 µM.

Turning to `CC(=O)NCC(=O)N[C@@H](CCC(N)=O)C(=O)N[C@@H](Cc1ccccc1)C(=O)N[C@@H](CC(=O)O)C(=O)N[C@@H](CC(=O)O)C(=O)N[C@@H](C)C(=O)N[C@@H](CC(=O)O)C(=O)N[C@@H](CCCCNC(=O)COCCOCCNC(=S)Nc1ccc2c(c1)C(=O)OC21c2ccc(O)cc2Oc2cc(O)ccc21)C(N)=O` [compound 9] (Ac-GQFDDADK([AEEA-FITC])-NH2), the Kd in assay [1] was > 5 µM.

As for `CC(C)[C@H](NC(=O)[C@H](CCCNC(=N)N)NC(=O)[C@H](CO)NC(=O)COCCOCCNC(=S)Nc1ccc2c(c1)C(=O)OC21c2ccc(O)cc2Oc2cc(O)ccc21)C(=O)N[C@H](C(=O)N1CCC[C@H]1C(=O)NCC(=O)N[C@@H](CCC(N)=O)C(=O)N[C@@H](Cc1ccccc1)C(=O)N[C@@H](CC(=O)O)C(=O)N[C@@H](CC(=O)O)C(=O)N[C@@H](C)C(=O)N[C@@H](CC(=O)O)C(=O)N[C@@H](CO)C(=O)N[C@@H](CO)C(=O)N[C@@H](CC(=O)O)C(N)=O)C(C)C` [compound 11] ({FITC-AEEA}-SRVVPGQFDDADSSD-NH2), the Kd in assay [1] was 0.295 ± 0.011 µM. The same measure, in the same setting: the result for `CSCC[C@H](NC(=O)[C@H](CC(C)C)NC(=O)[C@H](CC(C)C)NC(=O)COCCOCCNC(=S)Nc1ccc2c(c1)C(=O)OC21c2ccc(O)cc2Oc2cc(O)ccc21)C(=O)N[C@@H](CO)C(=O)N[C@@H](CCCNC(=N)N)C(=O)N[C@H](C(=O)N[C@H](C(=O)N1CCC[C@H]1C(=O)NCC(=O)N[C@@H](CCC(N)=O)C(=O)N[C@@H](Cc1ccccc1)C(=O)N[C@@H](CC(=O)O)C(=O)N[C@@H](CC(=O)O)C(=O)N[C@@H](C)C(=O)N[C@@H](CC(=O)O)C(N)=O)C(C)C)C(C)C` [compound 12] ({FITC-AEEA}-LLMSRVVPGQFDDAD-NH2) reads 0.192 ± 0.026 µM; that for `CSCC[C@H](NC(=O)[C@H](CC(C)C)NC(=O)[C@H](CC(C)C)NC(=O)COCCOCCNC(=S)Nc1ccc2c(c1)C(=O)OC21c2ccc(O)cc2Oc2cc(O)ccc21)C(=O)N[C@@H](CO)C(=O)N[C@@H](CCCNC(=N)N)C(=O)N[C@H](C(=O)N[C@H](C(=O)N1CCC[C@H]1C(=O)NCC(=O)N[C@@H](CCC(N)=O)C(=O)N[C@@H](Cc1ccccc1)C(=O)N[C@@H](CC(=O)O)C(=O)N[C@@H](CC(=O)O)C(=O)N[C@@H](C)C(=O)N[C@@H](CC(=O)O)C(=O)N[C@@H](CO)C(=O)N[C@@H](CO)C(=O)N[C@@H](CC(=O)O)C(N)=O)C(C)C)C(C)C` [compound 13] ({FITC-AEEA}-LLMSRVVPGQFDDADSSD-NH2), 0.279 ± 0.041 µM; that for `CC(C)[C@H](NC(=O)[C@H](CC(=O)O)NC(=O)[C@H](C)NC(=O)[C@H](CC(=O)O)NC(=O)[C@H](CCC(=O)O)NC(=O)[C@H](Cc1ccccc1)NC(=O)[C@H](CCC(N)=O)NC(=O)CNC(=O)[C@H](C)NC(=O)[C@@H](NC(=O)[C@@H](NC(=O)[C@@H]1CCCN1C(=O)[C@@H](NC(=O)COCCOCCNC(=S)Nc1ccc2c(c1)C(=O)OC21c2ccc(O)cc2Oc2cc(O)ccc21)[C@@H](C)O)[C@@H](C)O)C(C)C)C(=O)N[C@@H](CC(=O)O)C(=O)N[C@@H](Cc1c[nH]cn1)C(N)=O` [compound 15] ({FITC-AEEA}-TPTVAGQFEDADVDH-NH2), 0.52 ± 0.04 µM. The same measure, in the same setting: the result for `CC(C)[C@H](NC(=O)COCCOCCNC(=S)Nc1ccc2c(c1)C(=O)OC21c2ccc(O)cc2Oc2cc(O)ccc21)C(=O)N[C@@H](CC(=O)O)C(=O)N[C@H](C(=O)N[C@H](C(=O)N1CCC[C@H]1C(=O)N[C@H](C(=O)N[C@H](C(=O)N[C@@H](C)C(=O)NCC(=O)N[C@@H](CCC(N)=O)C(=O)N[C@@H](Cc1ccccc1)C(=O)N[C@@H](CCC(=O)O)C(=O)N[C@@H](CC(=O)O)C(=O)N[C@@H](C)C(=O)N[C@@H](CC(=O)O)C(N)=O)C(C)C)[C@@H](C)O)[C@@H](C)O)[C@@H](C)O` [compound 16] ({FITC-AEEA}-VDTTPTVAGQFEDAD-NH2) reads 2.38 ± 0.817 µM. As to Ac-ARVVPGQFDDAD-NH2 [compound 37], in assay [2], the IC50 – broadly, the concentration needed to halve the response being measured – turned out to be 0.9 ± 0.2 µM. With Ac-MVFETGQFDDAED-NH2 [compound 25], the 50% inhibitory concentration (IC50) in assay [2] turned out to be 3.4 ± 0.2 µM. Consider Ac-SAVVPGQFDDAD-NH2 [compound 36], for which the concentration for half-maximal inhibition (IC50) in assay [2] turned out to be 2.8 ± 0.5 µM. Same read-out and setting: the value for Ac-SRAVPGQFDDAD-NH2 [compound 35] was 4.8 ± 0.7 µM; that for Ac-SRVAPGQFDDAD-NH2 [compound 34] was 14 ± 3.4 µM; that for Ac-SRVVAGQFDDAD-NH2 [compound 33] was 9.9 ± 2.2 µM. On to Ac-SRVVPAQFDDAD-NH2 [compound 32], for which the half-inhibitory concentration (IC50) in assay [2] worked out at 39 ± 8.5 µM. The same measure, in the same setting: the value for Ac-SRVVPGAFDDAD-NH2 [compound 31] was > 300 µM. With Ac-SRVVPGQADDAD-NH2 [compound 30], the IC50 in assay [2] is > 300 µM. On the same count and under the same terms, the result for Ac-SRVVPGQFADAD-NH2 [compound 29] reads 6.4 ± 0.3 µM; that for Ac-SRVVPGQFDAAD-NH2 [compound 28], 97 ± 17 µM; that for Ac-SRVVPGQFDDAA-NH2 [compound 27], 6.2 ± 2.2 µM. The same measure, in the same setting: the value for Ac-SRVVPGQFDDAD-NH2 [compound 26] was 6 ± 0.7 µM. Ac-SRVVPGQFDDADSSD-NH2 [compound 23]: in assay [2], the half-maximal inhibitory concentration (IC50) was 1.5 ± 0.4 µM. With Ac-TPTVAGQFEDAD-NH2 [compound 24], the half-inhibitory concentration (IC50) in assay [2] is 14.6 ± 0.9 µM.

Take “Ac‐FDDADK(O2Oc‐Fitc)‐NH2 [compound 10, N-terminally truncated, C-terminally labelled RioK1 derived peptide]”: in assay [1], the “K D (Table 2, peptides 1–16)” value is on record as “n.b”. Regarding “Fitc‐O2Oc‐SRVVPGQF‐NH2 [compound 6, C-terminally truncated RioK1 derived Fitc-labelled peptide]”, in assay [1], the “K D (Table 2, peptides 1–16)” value is “n.b”.

As to “Fitc‐O2Oc‐TPTVAGQF‐NH2 [compound 14, C-terminally truncated pICln derived Fitc-labelled peptide]”, the “K D (Table 2, peptides 1–16)” value in assay [1] is “n.b”.
